Source: patent US20250206776A1, “ENZYME-INSTRUCTED SELF-ASSEMBLY OF PEPTIDES CONTAINING N-TERMINAL PHOSPHO-AROMATIC CAPPING MOTIF, AND USES THEREOF” (BRANDEIS UNIVERSITY, priority 2021, published 2025)
Each block holds one compound with its values, some of them ahead of it.

Tests used:
SJSA1 cells = test: MTT assay, SJSA1 cells; type: cell-based, human; conditions: SJSA1, 2 h, presence or absence of DQB (20 μM)
Procedure: (§1) Cell Culture: Saos2, SJSA1 and HepG2 cells were purchased from American Type Culture Collection (ATCC, USA). Saos2 cells were cultured in McCoy's 5A Medium (Gibco, Life Technologies) supplemented with 15% (v/v) fetal bovine serum (FBS) (Gibco, Life Technologies), 100 U/mL penicillin and 100 µg/mL streptomycin (Gibco, Life Technologies); SJSA1 cell were culture in RPMI1640 (ATCC, USA) Medium supplemented with 10% (v/v) FBS, 100 U/mL penicillin and 100 µg/mL streptomycin; HepG2 cells were cultured in Minimal Essential Medium (MEM) (Gibco, Life Technologies) supplemented with 10% (v/v) FBS, 100 U/mL penicillin and 100 µg/mL streptomycin. All the cells were maintained at 37° C. in a humidified atmosphere of 5% CO2.
MTT Assay: Cells were seeded in 96-well plates at 1×10^4 cells/well for 24 hours to allow attachment. After removing the culture medium, fresh culture medium containing different concentration of the precursors were added. […] 100 μL of SDS-HCl solution was then added to stop the reduction reaction and dissolve the formazan. The absorbance of each well at 595 nm was measured by a DTX880 Multimode Detector. The results were calculated as cell viability percentage relative to untreated cells. The MTT assay was performed in triplet (n=3) and the average value of the three measurements was taken. […]

Saos2 cells = test: MTT assay, Saos2 cells; type: cell-based, human; conditions: Saos2, 2 h, presence or absence of DQB (20 μM)
Procedure: as §1
MTT Assay: Cells were seeded in 96-well plates at 1×10^4 cells/well for 24 hours to allow attachment. After removing the culture medium, fresh culture medium containing different concentration of the precursors were added. After 24/48/72 hours, 10 μL MTT (ACROS Organics) solution (5 mg/mL) was added to each well to incubate at 37° C. for 4 h. 100 μL of SDS-HCl solution was then added to stop the reduction reaction and dissolve the formazan. The absorbance of each well at 595 nm was measured by a DTX880 Multimode Detector. The results were calculated as cell viability percentage relative to untreated cells. […]

[1] = hydrophobicity of the aromatic group; cited from earlier work
[2] = Solubility in PBS buffer / water; type: physicochemical; conditions: compared with 6

SMILES: COC(=O)CC[C@@H](NC(=O)[C@@H](Cc1ccccc1)NC(=O)[C@@H](Cc1ccccc1)NC(=O)c1ccc(-c2ccc(OP(=O)(O)O)cc2)cc1)C(=O)OC [9P]
cytotoxicity compared to 10P (cell viability) (SJSA1 cells): higher cytotoxicity | cytotoxicity compared to 10P (cell viability) (Saos2 cells): higher cytotoxicity

SMILES: c1ccc(-c2ccccc2)cc1 [biphenyl]
log P [1]: 3.71

relative water solubility [2]: more water soluble than 6
SMILES: O=C(N[C@H](Cc1ccccc1)C(=O)N[C@H](Cc1ccccc1)C(=O)O)c1ccc(O)cc1 [compound 2, B-ff]

relative water solubility [2]: more water soluble than 6
SMILES: O=C(N[C@H](Cc1ccccc1)C(=O)N[C@H](Cc1ccccc1)C(=O)O)c1ccc2cc(O)ccc2c1 [compound 4, NP-ff]
